# Values quoted from earlier work in patent US20060052354A1, “Methods for treating migraine” (Corcept Therapeutics, Inc., priority 2002, published 2006).
# What was measured:
# [1] = in one study (Kawai)
# [2] = molecular target: T1, glucocorticoid (GR) receptors (Homo sapiens, UniProt P04150)
# T1 sequence (P04150 1-777): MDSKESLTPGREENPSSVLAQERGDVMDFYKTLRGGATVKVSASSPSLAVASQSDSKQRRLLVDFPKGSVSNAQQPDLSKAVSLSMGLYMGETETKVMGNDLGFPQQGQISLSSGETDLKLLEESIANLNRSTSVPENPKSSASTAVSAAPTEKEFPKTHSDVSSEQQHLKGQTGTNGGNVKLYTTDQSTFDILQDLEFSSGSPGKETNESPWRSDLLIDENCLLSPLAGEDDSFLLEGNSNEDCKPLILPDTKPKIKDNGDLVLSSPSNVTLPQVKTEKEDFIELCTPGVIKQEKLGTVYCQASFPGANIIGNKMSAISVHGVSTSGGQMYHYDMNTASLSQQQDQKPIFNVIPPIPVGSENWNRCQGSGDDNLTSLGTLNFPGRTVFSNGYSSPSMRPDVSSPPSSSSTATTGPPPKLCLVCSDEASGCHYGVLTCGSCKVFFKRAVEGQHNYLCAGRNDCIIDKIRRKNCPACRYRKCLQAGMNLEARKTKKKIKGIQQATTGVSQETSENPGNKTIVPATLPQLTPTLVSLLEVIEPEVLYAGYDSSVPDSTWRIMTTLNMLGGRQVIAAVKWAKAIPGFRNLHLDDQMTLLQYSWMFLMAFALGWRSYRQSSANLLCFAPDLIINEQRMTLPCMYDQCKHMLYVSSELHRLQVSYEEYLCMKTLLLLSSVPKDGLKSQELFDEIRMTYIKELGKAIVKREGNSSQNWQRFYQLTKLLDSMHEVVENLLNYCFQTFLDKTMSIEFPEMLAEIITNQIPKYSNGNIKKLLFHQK
# [3] = molecular target: T2, progesterone receptor (Homo sapiens, UniProt P06401)
# T2 sequence (P06401 1-933): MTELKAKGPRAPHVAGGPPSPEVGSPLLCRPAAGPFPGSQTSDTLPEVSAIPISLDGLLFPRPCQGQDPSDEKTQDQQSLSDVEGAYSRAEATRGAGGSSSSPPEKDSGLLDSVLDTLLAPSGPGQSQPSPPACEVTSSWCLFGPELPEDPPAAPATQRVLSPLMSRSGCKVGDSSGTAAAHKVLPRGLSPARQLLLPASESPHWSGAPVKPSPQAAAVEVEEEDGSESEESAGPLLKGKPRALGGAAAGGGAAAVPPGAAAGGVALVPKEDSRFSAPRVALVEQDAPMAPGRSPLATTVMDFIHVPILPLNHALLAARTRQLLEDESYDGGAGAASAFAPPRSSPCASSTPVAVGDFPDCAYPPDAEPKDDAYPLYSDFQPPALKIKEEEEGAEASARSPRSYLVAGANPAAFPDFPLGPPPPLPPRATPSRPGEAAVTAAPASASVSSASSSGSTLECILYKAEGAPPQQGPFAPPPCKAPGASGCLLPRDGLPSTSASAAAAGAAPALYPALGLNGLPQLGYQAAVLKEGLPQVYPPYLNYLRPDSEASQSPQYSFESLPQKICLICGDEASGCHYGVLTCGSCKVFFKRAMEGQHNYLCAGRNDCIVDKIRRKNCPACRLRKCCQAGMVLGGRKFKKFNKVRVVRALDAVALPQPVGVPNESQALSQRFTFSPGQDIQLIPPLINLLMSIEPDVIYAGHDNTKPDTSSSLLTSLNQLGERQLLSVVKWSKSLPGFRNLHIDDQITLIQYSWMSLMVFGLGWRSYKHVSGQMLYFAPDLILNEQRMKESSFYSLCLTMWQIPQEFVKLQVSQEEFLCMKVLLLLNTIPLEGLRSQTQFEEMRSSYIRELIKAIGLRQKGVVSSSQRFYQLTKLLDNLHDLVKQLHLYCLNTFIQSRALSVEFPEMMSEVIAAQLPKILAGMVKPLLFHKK
# [4] = molecular target: T3, Mineralocorticoid receptors (MRs) (Homo sapiens, UniProt P08235); settings: MR versus GR
# T3 sequence (P08235 1-984): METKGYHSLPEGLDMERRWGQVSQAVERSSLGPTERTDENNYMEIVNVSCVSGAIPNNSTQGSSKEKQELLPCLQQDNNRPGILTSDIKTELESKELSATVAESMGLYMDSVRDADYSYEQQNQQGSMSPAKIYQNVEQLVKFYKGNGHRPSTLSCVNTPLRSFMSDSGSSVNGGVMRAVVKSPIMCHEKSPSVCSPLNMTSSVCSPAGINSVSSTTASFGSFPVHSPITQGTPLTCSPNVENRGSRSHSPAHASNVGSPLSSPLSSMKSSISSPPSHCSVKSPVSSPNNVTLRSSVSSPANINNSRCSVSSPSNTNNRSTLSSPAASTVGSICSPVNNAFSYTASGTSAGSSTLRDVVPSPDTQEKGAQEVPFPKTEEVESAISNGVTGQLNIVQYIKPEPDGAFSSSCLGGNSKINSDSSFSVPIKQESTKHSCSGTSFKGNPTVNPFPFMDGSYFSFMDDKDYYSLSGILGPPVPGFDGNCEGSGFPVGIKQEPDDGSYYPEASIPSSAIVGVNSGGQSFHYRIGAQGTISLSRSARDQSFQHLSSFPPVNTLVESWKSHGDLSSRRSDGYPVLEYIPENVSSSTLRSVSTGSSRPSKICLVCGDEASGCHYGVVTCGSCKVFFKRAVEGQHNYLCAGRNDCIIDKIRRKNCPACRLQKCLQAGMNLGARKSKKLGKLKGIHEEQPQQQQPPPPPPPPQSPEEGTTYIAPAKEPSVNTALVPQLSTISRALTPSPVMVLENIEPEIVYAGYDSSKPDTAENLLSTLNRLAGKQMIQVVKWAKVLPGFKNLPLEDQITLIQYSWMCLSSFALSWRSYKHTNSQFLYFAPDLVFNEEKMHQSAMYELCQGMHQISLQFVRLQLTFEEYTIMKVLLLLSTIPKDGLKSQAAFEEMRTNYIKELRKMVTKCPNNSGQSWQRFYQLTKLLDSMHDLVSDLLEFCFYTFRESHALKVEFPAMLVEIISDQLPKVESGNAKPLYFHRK
affinity of MRs for cortisol relative to GRs for glucocorticoids [4],SMILES,daily dose excreted in the urine [1],antagonist of the glucocorticoid (GR) receptor [2],antagonist of the progesterone receptor [3]
–,"CC#C[C@]1(O)CC[C@H]2[C@@H]3CCC4=CC(=O)CCC4=C3[C@@H](c3ccc(N(C)C)cc3)C[C@@]21C [Mifepristone, (11β,17β) 11 [4 (dimethylamino)phenyl]-17 hydroxy-17 (1 propynyl)estra-4,9 dien-3 one]",less than 0.5%,powerful antagonist,powerful antagonist
–,"CC#C[C@]1(O)CC[C@H]2[C@@H]3CCC4=CC(=O)CCC4=C3[C@@H](c3ccc(OCCN(C)C)cc3)C[C@@]21C [RU009, 11β-(4-dimethylaminoethoxyphenyl)-17α-propynyl-17β-hydroxy-4,9-estradien-3-one]",–,GR antagonist effects,–
ten-fold,C[C@]12CCC(=O)C=C1CC[C@@H]1[C@@H]2[C@@H](O)C[C@@]2(C)[C@H]1CC[C@]2(O)C(=O)CO [cortisol],–,–,–
